Assay results published in US12421218B2, “Substituted pyrazine-carboxamide derivatives” (Boehringer Ingelheim International GmbH, priority 2022, dated 2025).
pIC50: −log10 of the molar value.

Biological target: human metabotropic Glutamate 4 receptor (mGluR4) (Homo sapiens (Human), UniProt Q14833)
Assay: Assay A: In vitro testing of mGluR4 potency (cAMP HTRF, glutamate/forskolin stimulated)
Assay type: cell-based
Details: HEK293 cells overexpressing human mGluR4; 10 uM L-glutamic acid, 1 uM forskolin
Method: A. In Vitro Testing of mGluR4 Potency
The in vitro activity of the compounds according to the invention may be investigated as follows:
The HEK293 cell overexpressing the human metabotropic Glutamate 4 receptor are thawed at 37° C. and immediately diluted with cell culture medium. After centrifugation, the cell pellet is re-suspended in medium and then distributed from a stirred spinner flask into the wells of the assay plate. The plates are incubated for one hour at room temperature before they are incubated for 24 hours at 37° C./5% CO2. After washing the cells in the plate three times with 80 uL HBSS/HEPES buffer (10 uL buffer remained in the wells after washing), 5 uL per well of compounds diluted in HBSS/HEPES buffer containing 0.2% BSA (final concentration: 0.1%) and 1 mM IBMX (final concentration: 0.5 mM) are added to the wells of the assay plate. Thereafter 5 uL per well of L-Glutamic acid (final concentration: 10 uM), forskolin (final concentration: 1 uM) and 1 mM IBMX (final concentration: 0.5 mM) dissolved in HBSS/HEPES buffer containing 0.2% BSA (final concentration: 0.1%) are added to the assay plate (final DMSO concentration: 1%). […] The emission at 615 nm and 665 nm (Excitation wavelength: 320 nm) are measured on the EnVision™ reader (PerkinElmer). The ratio between the emission at 665 nm and 615 is calculated by the reader. […]

Sequence of human metabotropic Glutamate 4 receptor (mGluR4) (Q14833 33-912): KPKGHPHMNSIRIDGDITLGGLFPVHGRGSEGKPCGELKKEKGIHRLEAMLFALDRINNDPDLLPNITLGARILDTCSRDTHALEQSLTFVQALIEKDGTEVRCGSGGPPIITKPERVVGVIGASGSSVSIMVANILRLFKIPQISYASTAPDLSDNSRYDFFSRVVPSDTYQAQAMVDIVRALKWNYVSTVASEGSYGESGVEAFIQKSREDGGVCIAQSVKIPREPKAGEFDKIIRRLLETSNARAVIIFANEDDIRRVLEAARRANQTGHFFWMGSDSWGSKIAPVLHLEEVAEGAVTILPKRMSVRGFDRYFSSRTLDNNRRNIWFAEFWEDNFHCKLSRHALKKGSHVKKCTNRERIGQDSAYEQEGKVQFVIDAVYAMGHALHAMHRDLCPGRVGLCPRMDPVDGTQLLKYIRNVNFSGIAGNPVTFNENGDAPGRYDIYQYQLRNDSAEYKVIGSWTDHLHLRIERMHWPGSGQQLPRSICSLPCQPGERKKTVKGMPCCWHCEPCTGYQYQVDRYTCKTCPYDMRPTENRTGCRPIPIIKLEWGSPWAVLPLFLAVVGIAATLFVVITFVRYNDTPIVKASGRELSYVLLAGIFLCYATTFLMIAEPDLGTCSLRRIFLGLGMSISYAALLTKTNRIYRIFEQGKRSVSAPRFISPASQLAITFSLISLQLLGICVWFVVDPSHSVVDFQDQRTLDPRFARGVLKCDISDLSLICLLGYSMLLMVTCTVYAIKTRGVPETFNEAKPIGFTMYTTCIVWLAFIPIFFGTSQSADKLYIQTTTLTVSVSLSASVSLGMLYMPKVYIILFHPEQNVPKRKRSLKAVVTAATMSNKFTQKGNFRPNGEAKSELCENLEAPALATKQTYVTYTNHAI

Q: How did the pIC50 turn out when `CCn1c([C@@H](NC(=O)c2cnc(C(F)F)cn2)C(C)C)nc2cc(F)ccc21` [Example 59, 5-(difluoromethyl)-N-[(1S)-1-(1-ethyl-5-fluoro-1H-1,3-benzodiazol-2-yl)-2-methylpropyl]pyrazine-2-carboxamide] was run?
A: 8.40
